The results in this text go back to patent US11696593B2, “Astaxanthin nutritional compositions and uses” (Bioscience Formulators, LLC, priority 2018, dated 2023).

This assay concerns subject having diabetes with A1C as high as 13. Briefly: blood A1C level of a diabetic subject, astaxanthin alone and then the daily dose (Example 4). The class given is in vivo, human. The note with it: one subject, 12-24 mg of astaxanthin a day. From the text: They begin taking softgel capsules of the daily dose of Example 1 and after 6 weeks their blood A1C level is 5.6 with no changes in diet or habits.

The compound `CC1=C(/C=C/C(C)=C/C=C/C(C)=C/C=C/C=C(C)/C=C/C=C(C)/C=C/C2=C(C)C(=O)C(O)CC2(C)C)C(C)(C)CC(O)C1=O` (stereo not drawn) [astaxanthin, 3,3′-dihydroxy-β-carotene-4,4′-dione] registered a blood A1C levels of at most 13%.
